This is an account of results in the supplement of paper PMC10307832.

Assay in all cases: relative viability (nuclei count vs DMSO), 5 days (fraction); higher = more cells survive
Compound in test [1]: C[C@@H](C(=O)N[C@@H](C1CCCCC1)C(=O)N2CCC[C@H]2C(=O)N[C@@H]3[C@@H](CC4=CC=CC=C34)OCC#CC#CCO[C@@H]5CC6=CC=CC=C6[C@@H]5NC(=O)[C@@H]7CCCN7C(=O)[C@H](C8CCCCC8)NC(=O)[C@H](C)NC)NC [AZD5582] + Nc1ncn([C@H]2C[C@H](O)[C@@H](CO)O2)c(=O)n1 [Decitabine] (partner 2 µM)
In short, it runs like this: (§1)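 Lung cancer cell lines, seeded in 1536-well plates, were treated the following day by pin tool with a single drug or with five library-drug doses (not always all listed) in √10 steps on top of a fixed anchor-drug dose. Cells were fixed and nuclei stained in one step after 5 days, and nuclei were counted. Relative viability is the nuclei count for treated wells divided by that for vehicle wells, reported as medians of duplicate plates.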

Compound in test [2]: C[C@@H](C(=O)N[C@@H](C1CCCCC1)C(=O)N2CCC[C@H]2C(=O)N[C@@H]3[C@@H](CC4=CC=CC=C34)OCC#CC#CCO[C@@H]5CC6=CC=CC=C6[C@@H]5NC(=O)[C@@H]7CCCN7C(=O)[C@H](C8CCCCC8)NC(=O)[C@H](C)NC)NC [AZD5582] + O=C(CCCCCCC(=O)Nc1ccccc1)NO [Vorinostat] (partner 1 µM)
In a few lines:
as §1

Compound in test [3]: Cn1nnc2c(C(N)=O)ncn2c1=O [Temozolomide] + CC1(C)CCC(c2ccc(Cl)cc2)=C(CN2CCN(c3ccc(C(=O)NS(=O)(=O)c4ccc(N[C@H](CCN5CCOCC5)CSc5ccccc5)c(S(=O)(=O)C(F)(F)F)c4)cc3)CC2)C1 [Navitoclax] (partner 0.5 µM)
In short, it runs like this:
as §1

Compound in test [4]: C[C@@H](C(=O)N[C@@H](C1CCCCC1)C(=O)N2CCC[C@H]2C(=O)N[C@@H]3[C@@H](CC4=CC=CC=C34)OCC#CC#CCO[C@@H]5CC6=CC=CC=C6[C@@H]5NC(=O)[C@@H]7CCCN7C(=O)[C@H](C8CCCCC8)NC(=O)[C@H](C)NC)NC [AZD5582] + COc1cc2c(Oc3ccc(NC(=O)C4(C(=O)Nc5ccc(F)cc5)CC4)cc3F)ccnc2cc1OCCCN1CCOCC1 [Foretinib] (partner 0.25 µM)
In a few lines: as §1

In the case of HCC-366, the relative viability was 0.346 in test [1] (first compound 0.001581 µM); 0.37 in test [1] (first compound 0.005 µM); 0.386 in test [1] (first compound 0.01581 µM); 0.395 in test [1] (first compound 0.05 µM); 0.239 in test [2] (first compound 0.001581 µM); 0.398 in test [2] (first compound 0.005 µM). For the same cell line, the relative viability in test [2] (first compound 0.01581 µM) was 0.186; in test [2] (first compound 0.05 µM), 0.425; in test [3] (first compound 0.2 µM), 1.07; in test [3] (first compound 0.6325 µM) it was 1.18; in test [3] (first compound 2 µM), 1.14; in test [3] (first compound 6.325 µM), 1.17. Also, the relative viability in test [3] (first compound 20 µM) came out at 0.918; in test [4] (first compound 0.001581 µM) it was 0.947; in test [4] (first compound 0.005 µM), 0.978; in test [4] (first compound 0.05 µM), 1.
Consider NCI-H1395, for which the relative viability in test [1] (first compound 0.001581 µM) came to 0.694; in test [1] (first compound 0.005 µM) it was 0.743; in test [1] (first compound 0.05 µM) it was 0.782; in test [2] (first compound 0.001581 µM), 0.721; in test [2] (first compound 0.005 µM), 0.789; in test [2] (first compound 0.05 µM) it was 0.768. Moreover, the relative viability came to 1.26 in test [3] (first compound 0.2 µM); 1.14 in test [3] (first compound 0.6325 µM); 1.14 in test [3] (first compound 2 µM); 1.1 in test [3] (first compound 6.325 µM); 1.05 in test [3] (first compound 20 µM); 0.979 in test [4] (first compound 0.001581 µM). Besides, the values for the relative viability in test [4] (first compound 0.005 µM), in test [4] (first compound 0.01581 µM) and in test [4] (first compound 0.05 µM) were 1.14, 1.04 and 1.14, respectively.
Turning to NCI-H2170, the relative viability was determined as 0.489 in test [1] (first compound 0.001581 µM); 0.474 in test [1] (first compound 0.005 µM); 0.478 in test [1] (first compound 0.01581 µM); 0.504 in test [1] (first compound 0.05 µM); 0.683 in test [2] (first compound 0.001581 µM); 0.834 in test [2] (first compound 0.005 µM). Also, the relative viability in test [2] (first compound 0.01581 µM) came out at 0.787; in test [2] (first compound 0.05 µM) it was 0.91; in test [3] (first compound 0.6325 µM), 0.478; in test [3] (first compound 2 µM), 0.6; in test [3] (first compound 6.325 µM) it was 0.534; in test [3] (first compound 20 µM), 0.32. The relative viability came to 1.04 in test [4] (first compound 0.001581 µM), 1.01 in test [4] (first compound 0.005 µM), 1 in test [4] (first compound 0.01581 µM) and 1.09 in test [4] (first compound 0.05 µM).
Take HOP-62: the relative viability in test [1] (first compound 0.001581 µM) came to 0.213; in test [1] (first compound 0.005 µM), 0.209; in test [1] (first compound 0.01581 µM), 0.247; in test [1] (first compound 0.05 µM), 0.213; in test [2] (first compound 0.001581 µM), 0.506; in test [2] (first compound 0.005 µM) it was 0.663. Further, the relative viability was found to be 0.41 in test [2] (first compound 0.01581 µM); 0.547 in test [2] (first compound 0.05 µM); 1.05 in test [3] (first compound 0.2 µM); 1 in test [3] (first compound 0.6325 µM); 1.13 in test [3] (first compound 2 µM); 0.941 in test [3] (first compound 6.325 µM). In addition, the relative viability in test [3] (first compound 20 µM) is 1.14; in test [4] (first compound 0.001581 µM), 1.01; in test [4] (first compound 0.005 µM), 1.11; in test [4] (first compound 0.01581 µM) it was 1.06; in test [4] (first compound 0.05 µM), 1.05.
With NCI-H322M, the relative viability turned out to be 0.762 in test [1] (first compound 0.001581 µM); 0.739 in test [1] (first compound 0.005 µM); 0.652 in test [1] (first compound 0.01581 µM); 0.737 in test [1] (first compound 0.05 µM); 0.924 in test [2] (first compound 0.001581 µM); 1.01 in test [2] (first compound 0.005 µM). For the same cell line, the relative viability in test [2] (first compound 0.01581 µM) amounted to 0.97; in test [2] (first compound 0.05 µM) it was 1.17; in test [3] (first compound 0.6325 µM), 1.36; in test [3] (first compound 2 µM), 1.28; in test [3] (first compound 6.325 µM), 1.21; in test [3] (first compound 20 µM), 0.967. In addition, the relative viability in test [4] (first compound 0.001581 µM) stood at 1.07; in test [4] (first compound 0.005 µM) it was 1.06; in test [4] (first compound 0.05 µM), 1.29.
